# Patent US5446186A, “Structure and synthesis of nitrophenyl-EGTA, a caged calcium, intermediates thereof and a method of producing a high photochemical yield of liberated calcium” (priority 1993, dated 1995)
# “Also recorded” adds a separate entry of the source. Read-outs that look alike come from different tables or passages of the source.
# Key:
# [1] = test system: chemically skinned psoas fibers from rabbit skeletal muscle; assay: Ca-induced contraction of chemically skinned skeletal muscle fibers after laser flash photolysis; type: cell-based; settings: for time to achieve half-maximal tension: 15° C., 347 nm ruby laser flash, NP-EGTA:Ca^2+ 1.9 mM at 1 mM free Mg^2+, or DM-nitrophen:Ca^2+ 1.4 mM at 40 μM free Mg^2+; for tension transients, NP-EGTA compared with DM-nitrophen: photoreleased Ca^2+; for maximal contraction / full tension after laser flash: single 347 nm ruby laser flash, free Mg^2+ 1 mM (NP-EGTA), 40 μM (DM-nitrophen); for Ca^2+ release as rate-limiting step for contraction: skinned skeletal muscle fiber
# From the text: The arrow indicates the time of a pulse from a frequency-doubled ruby laser (347 nm). For DM-nitrophen, before photolysis, the muscle-bathing solution contained (mM): Tes (100), HDTA (27.91), ATPNa2 (3.0), creatine phosphate (20), glutathione (10), DM-nitrophen (2.0), MgCl2 (1.19), CaCl2 (1.60). In the NP-EGTA solution there was (mM): Tes (100), HDTA (25.35), ATPNa2 (5.50), creatine phosphate (20), glutathione (10), NP-EGTA (2.1), MgCl2 (7.0), CaCl2 (1.9). The pH of both solutions was 7.0; the ionic strength was 0.2M. Tension development was measured as in Ref. 24.
# Photolysis of nitrophenyl-EGTA:Ca^2+ and DM-nitrophen:Ca^2+ complexes were used to release Ca^2+ rapidly in chemically skinned psoas fibers from rabbit skeletal muscle. […] The time to achieve half-maximal tension using NP-EGTA was 17.9 ms and 18.1 ms with DM-nitrophen at 15° C. (see FIG. 4). […] It is interesting that there are no major effects, on the rate of the development of tension nor on the maximal contraction, due to a change in [Mg]free from 40 μM to 1 mM in these experiments.
# [2] = DM-nitrophen:Ca^2+ complex; cited from earlier work
# [3] = pH 7.2; before photolysis; read-out: Kd for Ca^2+ (comparison chelators); cited from earlier work
# [4] = Quantum yield of photolysis by HPLC, comparison to caged-Pi; type: physicochemical
# Description: The filtered output of 1000-W high pressure Hg arc lamp was used to photolyze solutions of NP-EGTA (1.77 mM) or caged-Pi (3.12 mM) in buffer (40 mM hepes, 100 mM KCl, pH 7.2) with absorbances of 0.0105 in a cuvette with a pathlength of […]. Each solution also contained inosine (100 mM) as the internal standard.
# On the left, t=0 s, on the fight, t=15 s.
# On the left, t=0 s, on the fight, t=15 s. HPLC was performed using a Novapak C18 reverse-phase HPLC column and two Waters 501 pumps fitted with a Waters 680 automated control module delivering 2 ml/min. Pump A delivered […] and pump B 80% acetonitrile/0.052% TFA. The gradient was for 0-5 min 100% A, from 5-20 min a linear change to 80% A, and from 20-40 min 80% A. The eluent was monitored by a Waters 990 photodiode array detector and chromatograms are shown at 260 nm.
# The quantum yield of NP-EGTA photolysis was determined by comparison to that of caged-Pi which has previously been determined to have a quantum yield of photolysis of 0.54 (17). The time-course of disappearance of the caged compounds was followed by HPLC analysis of the reaction mixture (FIG. 2). The amount of NP-EGTA or caged-Pi remaining in the reaction mixture was normalized for each HPLC analysis by comparison to a photochemically inert internal standard, inosine (100 mM). […] Under the same conditions (i.e. flux density), 10.3% of NP-EGTA was photolyzed when saturating Ca^a+ (3.0 mM) was present (FIG. 2b). Thus, the quantum yield of photolysis of the NP-EGTA:Ca^2+ complex is 0.23.
# [5] = Selectivity for Ca^2+ versus Mg^2+: fluo-3 signal on addition of 1 mM Mg^2+ and on irradiation; type: binding
# [6] = Ca^2+ affinity by titration of chelator with Ca^2+, fluo-3 emission, Scatchard analysis; type: binding; settings: 40 mM hepes, 100 mM KCl, pH 7.2, 20° C.; before photolysis
# From the text: The affinity of NP-EGTA for Ca^2+ was obtained by titration of the chelator with incremental additions of Ca^2+. […] For any chelator:Ca^a+ complex to function effectively as a caged Ca, the pre-photolysis affinity should be high for two reasons. First, it is crucial that the resting or pre-photolysis [Ca^2+ ] is very low, i.e. that it is non-activating or sub-threshold for the biological system being investigated. The Kd^Ca and the total amounts of Ca^2+ and chelator determine [Ca^2+ ]free. Secondly, the percentage of chelator loaded with Ca^2+ before photolysis is important as this is a factor which determines how much Ca^2+ is liberated upon photolysis, as Ca^2+ can only be photoreleased if it is complexed. Also, if the chelator is frilly loaded, then the photoreleased Ca^2+ will not be rebound by unphotolysed, unloaded chelator, i.e. step increases rather than pulses of Ca^2+ will be produced (see ref. 19, 20).
# [7] = Absorption and fluorescence spectral properties; type: physicochemical
# Description: FIG. 1 is an absorption spectra of nitrophenyl-EGTA. The absorption spectrum of a solution of NP-EGTA ([…]) in buffer (40 mM hepes, 100 mM KCl, pH 7.2) is shown (spectrum a). The spectrum is altered (spectrum b) on addition of saturating Ca^2+ (0.20 mM). Photolysis of this sample for 300 s with the filtered output of a 1-kW Hg are lamp yielded photoproducts with spectrum (c).
# The absorption spectra of NP-EGTA without and with saturating Ca^2+ are shown in FIG. 1(a) and (b) respectively. The extinction coefficients at 260 and 347 nm are 5.52×10^3 M^-1 cm^-1 and 974 M^-1 cm^-1 respectively in Ca^2+ -free buffer (40 mM hepes, 100 mM KCl, pH 7.2). Saturating Ca^2+ produces a 10% decrease in the absorption at 260 nm. The absorption spectrum changes to that shown in FIG. 1(c) upon complete photolysis in the presence of Ca^2+. […] In fact, fluo-3 saturated with Ca^2+ is about 2.1×10s-fold more fluorescent at 530 nm than NP-EGTA is at 400 nm.
# [8] = Mg^2+ affinity by titration of Mg^2+-indicator mag-fura-red without and with NP-EGTA; type: binding; settings: 40 mM hepes, 100 mM KCl, pH 7.2, 25° C.; absorbance at 480 nm
# Description: The Mg^2+ affinity of NP-EGTA was determined by titration of the Mg^2+ -indicator, mag-fura-red (20 μM) without and with NP-EGTA (10 mM) in buffer (40 mM hepes, 100 mM KCl, pH=7.2) at 25° C.
# [9] = Ca^2+-free buffer, 40 mM hepes, 100 mM KCl, pH 7.2
smiles,measurement,setting,value
"COc1cc(C(CN(CC(=O)O)CC(=O)O)N(CC(=O)O)CC(=O)O)c([N+](=O)[O-])cc1OC (centres unmarked) [DM-nitrophen, reference compound]",time to achieve half-maximal tension,[1],18.1 ms
same,"tension transients, NP-EGTA compared with DM-nitrophen",[1],"identical, rapid tension transients"
same,maximal contraction / full tension after laser flash,[1],Rapid development of maximal tension
same,Ca^2+ release as rate-limiting step for contraction,[1],not rate-limiting
same,Ca^2+ release t1/2,[2],≤ 180 microseconds
same,Kd,[3],0.005 µM
"O=C(O)CN(CCOCCOCCN(CC(=O)O)CC(=O)O)CC(=O)O [EGTA, ethylenebis(oxyethylenenitrilo)tetraacetic acid]",Kd,[3],0.15 µM
O=C(O)CN(CCOCCOCC(c1ccccc1[N+](=O)[O-])N(CC(=O)O)CC(=O)O)CC(=O)O (centres unmarked) [NP-EGTA],"quantum yield of photolysis, in the absence of Ca^2+","[4]; Ca^2+-free, pH 7.2",0.20
same,percent photolyzed with Ca^2+,"[4]; after 15 s, saturating Ca^2+ (3.0 mM), 0.25 min, 1770 µM",10.3%
same,percent photolyzed without Ca^2+,"[4]; same flux density, Ca^2+-free, 1770 µM",8.91%
same,"quantum yield of photolysis, in the presence of Ca^2+","[4]; saturating Ca^2+ (3.0 mM), pH 7.2",0.23
same,photolysis efficiency relative to DM-nitrophen,[4]; versus DM-nitrophen (ref. 4),the same as that of DM-nitrophen
same,photolysis efficiency relative to nitr-5 or nitr-7,[4]; versus nitr-5 or nitr-7 (ref. 2),~6 times
same,effect of 1 mM Mg^2+ on fluo-3 signal,[5]; 0.655 mM NP-EGTA with 0.55 mM Ca^2+,no effect on the fluo-3 signal; also recorded: no increase in the fluo-3 signal
same,Ca^2+ liberation on irradiation in presence of Mg^2+ (fluo-3 signal),"[5]; frequency-doubled ruby laser, 347 nm",liberates Ca^2+ from the NP-EGTA:Ca^2+ complex
same,Kd,[6],0.08 µM
same,fluorescence emission,[7],virtually non-fluorescent
same,extinction coefficient at 260 nm,[7]; [9],5520 M⁻¹ cm⁻¹
same,extinction coefficient at 347 nm,[7]; [9],974 M⁻¹ cm⁻¹
same,decrease in absorption at 260 nm on saturating Ca^2+,[7]; saturating Ca^2+,10%
same,time to achieve half-maximal tension,[1],17.9 ms
same,time to achieve half-maximal tension,[1]; listed as nitrophenyl-EGTA,18 ms
same,"tension transients, NP-EGTA compared with DM-nitrophen",[1],"identical, rapid tension transients"
same,maximal contraction / full tension after laser flash,[1],releases sufficient Ca^2+ to generate full tension in the muscle fiber
same,maximal contraction / full tension after laser flash,[1]; listed as nitrophenyl-EGTA,maximal contraction after a single flash
same,Ca^2+ release as rate-limiting step for contraction,[1],also not rate-limiting
same,Kd,[8],8800 µM
same,Kd for Mg^2+,[8],in the mM range
"CC(OP(=O)(O)O)c1ccccc1[N+](=O)[O-] (centres unmarked) [caged-Pi, 1-(o-nitrophenyl)-ethyl phosphate, reference compound]",percent photolyzed,"[4]; after 15 s, caged-Pi 3.12 mM, 0.25 min",15.1%
Cc1ccc(N(CC(=O)O)CC(=O)O)c(OCCOc2cc(C(O)c3cc4c(cc3[N+](=O)[O-])OCO4)ccc2N(CC(=O)O)CC(=O)O)c1 (centres unmarked) [nitr-5],Ca^2+ released on 50% photolysis,1.0 mM Ca^2+ present,0.80 mM
same,prephotolysis free [Ca^2+],1.0 mM Ca^2+ present,0.145 mM
Cc1ccc(N(CC(=O)O)CC(=O)O)c(O[C@@H]2CCC[C@@H]2Oc2cc(C(O)c3cc4c(cc3[N+](=O)[O-])OCO4)ccc2N(CC(=O)O)CC(=O)O)c1 (some centres unmarked) [nitr-7],Ca^2+ released on 50% photolysis,[chelator]:[Ca^2+] 2 mM:1.50 mM,3 mM
